Marks after values point to notes of the source that are not given here.

What all share (format): in vivo
For one data set, the system named is male Wister rats. In words: Submerged restraint stress ulcer test. As to conditions: Rattus norvegicus, oral, once, 30 mg/5 ml/kg body weight in 0.5% CMC, 1 h before 6 h water immersion restraint stress, read-out: Ulceration inhibitory ratio (%). Here is the method:
A test compound as shown in Table 1 was suspended in 0.5% carboxymethylcellulose (CMC) and orally administered once to male Wister rats aged 11 weeks, which had been fasted for 18 hours, at a dose of 30 mg/5 ml/kg body weight. Similarly, 5 ml of 0.5% CMC was administered to a control group. One hour after the administration of the test compound, the rats were kept in restraining gages and immersed in water at 20 to 22°C up to the chest. Then, these animals were allowed to stand as such for six hours so as to load a stress. After pulling up from the water, each animal was sacrificed by vertebral cervical dislocation and the stomach was taken out. 5 ml of a 5% aqueous solution of formaldehyde was injected into the stomach and the stomach was immersed in said solution for 30 minutes for fixation. The specimen thus fixed was cut along the curvatura ventriculi major and the major axis of the formed ulcer was measured with a slide calipers (mm). The sum of the major axes of the total ulcers was made an ulcer index.
The ulceration inhibitory ratio was calculated according to the following equation: [formula]

The subject of data set [1] is male Donryu rats. In words: Histamine-induced ulcer test. Conditions: oral, once, 30 mg/5 ml/kg, 1 h before histamine dihydrochloride 200 mg/5 ml/kg i.p., sacrificed after five hours. Here is the method:
A compound obtained in Example 2 was suspended in 0.5% CMC and orally administered once to male Donryu rats, which had been fasted for 24 hours, at a dose of 30 mg/5 ml/kg. Similarly, 5 ml of 0.5% CMC was administered to a control group. One hour after the administration of the test compound, a solution of histamine dihydrochloride in a physiological saline solution was intraperitoneally administered to the rats at a dose of 200 mg/5 ml/kg. After five hours, each animal was sacrificed and the stomach was taken out and treated with an aqueous solution of formaldehyde to determine the ulceration inhibitory ratio in the same manner as in the above-described submerged restrain stress ulcer test. As a result, the ulceration inhibitory ratio was 50%.

Data set [2] relates to male Donryu rats. In words: Aspirin-induced ulcer test. Conditions: oral, 30 mg/5 ml/kg body weight, 1 h before Aspirin 300 mg/5 ml/kg oral, sacrificed after four hours. The procedure: A test compound suspended in 0.5% carboxymethylcellulose orally administered to male Donryu rats, which had been fasted for 24 hours, at a dose of 30 mg/5 ml/kg body weight. Similarly, 5 ml of 0.5% CMC was administered to a control group. One hour after the administration of the test compound, Aspirin suspended in 0.5% CMC was orally administered to the rats at a dose of 300 mg/5 ml/kg body weight. After four hours, each animal was sacrificed and the stomach was taken out and treated with an aqueous solution of formaldehyde to determine the ulceration inhibitory ratio in the same manner as in the submerged restrain stress ulcer test.

Data set [3] deals with male Donryu rats. Briefly: Ethanol-induced ulcer test. As to conditions: oral, 50 mg/5 ml/kg body weight, 1 h before 100% ethanol 5 ml/kg oral, sacrificed after one hour. Here is the method:
A compound obtained in Example 2 was suspended in 0.5% CMC and orally administered to male Donryu rats, which had been fasted for 48 hours and abstained from water for 24 hours, at a dose of […]. Similarly, 5 ml of 0.5% CMC was administered to a control group. One hour after the administration of the test compound, 100% ethanol was orally administered to the rats at a dose of 5 ml/kg body weight. After one hour, each animal was sacrificed and the stomach was taken out and treated in the above-mentioned manner. Then, erosion formation in the stomach was observed.
As a result, in a control group to which 0.5% CMC was given alone, erosion was formed at a frequency of almost 100%. In contrast thereto, in a test group to which the test compound was administered at a dose of 50 mg/5 ml/kg body weight, erosion formation was inhibited at a frequency of almost 100%. 5. Acute toxicity

In a further data set the test system is male ICR mice. Briefly: Acute toxicity. Conditions: oral, once, 1,000 mg/10 ml/kg body weight in 0.5% CMC; three male ICR mice; observed for seven days. From the text:
A compound prepared in Example 2 was suspended in 0.5% CMC to give a predetermined concentration. Then, three male ICR mice aged 5 weeks were forced to orally take the above suspension once.

Regarding `[O-][S+](CCO)c1nc2cc(Cl)ccc2s1` (stereo not shown) [Example 9, 5-Chloro-2-[(2-hydroxyethyl)sulfinyl]benzothiazole], the inhibition in vivo at 30 mg/kg with male Wister rats is 58.5%.
Same read-out and setting: the same measure for `CCOCC[S+]([O-])c1nc2ccccc2s1` (stereo not shown) [Example 4, 2-[(2-Ethoxyethyl)sulfinyl]benzothiazole]: 59.9%.
Take `CCOCC[S+]([O-])c1nc2cc(Cl)ccc2s1` (stereo not shown) [Example 2, 5-Chloro-2-[(2-ethoxyethyl)sulfinyl]benzothiazole]: the inhibition in vivo at 30 mg/kg with male Wister rats stood at 93%. For the same compound, the ulceration inhibitory ratio in the data set on male Donryu rats [1] turned out to be 50%. In addition, the “Ulceration inhibitory ratio (%)” value in the data set with male Donryu rats [2] is 85* %. Further, the “erosion formation was inhibited at a frequency of” value in the data set on male Donryu rats [3] is on record as ~100%. Moreover, the “acute toxicity (death of animals)” value in the data set on male ICR mice is given as “no animal died”.
`CCOCCSc1nc2cc(Cl)ccc2s1` [Example 1, 5-Chloro-2-[(2-ethoxyethyl)thio]benzothiazole]: the inhibition in vivo at 30 mg/kg in the data set on male Wister rats was 57%. The “Ulceration inhibitory ratio (%)” value in the data set on male Donryu rats [2] is 21.3%.
As for `[O-][S+](CCOCCOCCO)c1nc2cc(Cl)ccc2s1` (stereo not shown) [Example 11, 5-Chloro-2-[{2-(2-hydroxyethoxy)ethoxy}ethylsulfinyl]benzothiazole], the inhibition in vivo at 30 mg/kg with male Wister rats was 63.5%.
Still for that read-out and setting: the same measure for `CCOCC[S+]([O-])c1nc2ccccc2[nH]1` (stereo not shown) [Example 17, 2-[(2-Ethoxyethyl)sulfinyl]benzimidazole]: 73.6%.
Still for that read-out and setting: the same measure for `COc1ccc2[nH]c([S+]([O-])Cc3ncc(C)c(OC)c3C)nc2c1` (stereo not shown) [omeprazole, reference compound]: 99%; for `CCOCCS(=O)(=O)c1nc2cc(Cl)ccc2s1` [Example 3, 5-Chloro-2-[(2-ethoxyethyl)sulfonyl]benzothiazole]: 35.3%.

The record behind these values is patent EP0370436A2, “Novel benzothiazole and benzimidazole derivatives and antiulcer agent containing the same” (MEIJI SEIKA KAISHA LTD., priority 1988, dated 1990).
